Data reported in ChEMBL document CHEMBL6153048, “Synthesis and pharmacological evaluation of natural product diphyllin derivatives against head and neck squamous cell carcinoma” (Eur J Med Chem, 2025).
The source made the active and inactive calls. The calls are words filed in the database; no cut-off is given here.

Assays:
[1] = Cytotoxicity against human HN-6 cells incubated for 72 hrs by MTT assay; format: functional, cell-based; settings: HN-6, 72 h
[2] = Antiproliferative activity against human HN-6 cells assessed as inhibition rate at 0.1 uM incubated for 72 hrs by MTT assay relative to control; format: functional
[3] = Antiproliferative activity against human WSU HN-30 cells assessed as inhibition rate at 0.1 uM incubated for 72 hrs by MTT assay relative to control; format: functional; settings: WSU-HN30
[4] = system: CAL-27; assay: Cytotoxicity against human CAL-27 cells incubated for 72 hrs by MTT assay; format: functional, cell-based; settings: CAL-27, 72 h
[5] = system: CAL-27; assay: Antiproliferative activity against human CAL-27 cells assessed as inhibition rate at 0.1 uM incubated for 72 hrs by MTT assay relative to control; format: functional
[6] = Antiproliferative activity against human L02 cells assessed as inhibition rate at 0.1 uM incubated for 72 hrs by MTT assay relative to control; format: toxicity, cell-based
[7] = system: SCC-25; assay: Antiproliferative activity against human SCC-25 cells assessed as inhibition rate at 0.1 uM incubated for 72 hrs by MTT assay relative to control; format: functional
[8] = Cytotoxicity against human […] incubated for 72 hrs by MTT assay; format: functional, cell-based; settings: WSU-HN30, 72 h
[9] = system: SCC-9; assay: Antiproliferative activity against human SCC-9 cells assessed as inhibition rate at 0.1 uM incubated for 72 hrs by MTT assay relative to control; format: functional
[10] = system: SCC-25; assay: Cytotoxicity against human SCC-25 cells incubated for 72 hrs by MTT assay; format: functional, cell-based; settings: SCC-25, 72 h
[11] = system: SCC-9; assay: Cytotoxicity against human SCC-9 cells incubated for 72 hrs by MTT assay; format: functional, cell-based; settings: SCC-9, 72 h
[12] = Cytotoxicity against human L02 cells incubated for 72 hrs by MTT assay; format: toxicity, cell-based
[13] = system: CAL-27; assay: Antiproliferative activity against human CAL-27 cells assessed as inhibition of cell communities at 10 uM treated for 11 days by plate clone formation assay; format: functional, cell-based; settings: time 11.0 day

Compound | IC50 [1] [nM] | inhibition at 0.1 µM [2] [%] | inhibition at 0.1 µM [3] [%] | IC50 [4] [nM] | inhibition at 0.1 µM [5] [%] | inhibition at 72 h, 0.1 µM [6] [%] | inhibition at 0.1 µM [7] [%] | IC50 [8] [nM] | inhibition at 0.1 µM [9] [%] | IC50 [10] [nM] | IC50 [11] [nM] | IC50 at 72 h [12] [nM] | Activity [13]
COc1cc2c(OCCOCCN)c3c(c(-c4ccc5c(c4)OCO5)c2cc1OC)C(=O)OC3 | 185 | 50.8 | 34.2 | 101 | 45.6 | 18.3 | 28.9 | 144 | 34.9 | 85 | 135 | > 10000 | –
COc1cc2c(O[C@@H]3O[C@@H]4CO[C@@H](c5ccco5)O[C@H]4[C@H](O)[C@H]3O)c3c(c(-c4ccc5c(c4)OCO5)c2cc1OC)C(=O)OC3 | 8.58 | 58.7 | 45.7 | 5.47 | 50.9 | 5.23 | 54.6 | 243 | 52.9 | 4.31 | 4.97 | > 10000 | Active
